The values below come from patent publication US12180507B2, “Engineered platforms to stabilize both hepatocytes and endothelial cells in vitro” (Colorado State University Research Foundation, priority 2015, dated 2024).

The subject of one data set is LSECs. The note with it: known from the literature; cited from earlier work.
Data set [1] deals with tri-cultures of hepatocytes with 3T3-J2 fibroblasts and either liver sinusoidal endothelial cells (LSECs) or human umbilical vein endothelial cells (HUVECs). As to the kind of experiment: Drug toxicity screen: albumin secretions in hepatocyte/fibroblast/endothelia tri-cultures. The note with it: azathioprine 100x and 50xCmax, dacarbazine 100xCmax, monocrotaline 100xCmax; 6 days, serum-free media; tri-cultures with LSECs or HUVECs compared with hepatocyte/3T3-J2 co-cultures.
Method: Tissue culture polystyrene 24-well plates (Corning® Life Sciences) were coated for 2 hours with 25 μg/mL rat tail collagen-I (Corning® Life Sciences) and rinsed twice with sterile water. […] Cryopreserved PHHs after processing were seeded at a density of 6.67×10^5 cells/mL into collagen micropatterned wells (300 μL/well). After allowing 4-5 hours for cellular attachment and spreading onto collagen-coated islands, wells were washed 3× in DMEM base medium to remove unattached cells, leaving ˜3×10^4 PHHs per well in 24-well format (˜90 islands/well). Cultures in the co-planar arrangement were backfilled with fibronectin (2 μg/cm^2) before endothelia and 3T3-J2 fibroblasts were seeded 12-18 hours later and allowed to fill the remaining area surrounding the PHH islands. The hepatocyte:endothelial ratio was chosen to match the physiologic ratio of 5 hepatocytes (3×10^4 per well) to 1 endothelium (6×10^3 per well), and 3T3-J2 fibroblasts were added to bring the total stromal cell count to 9×10^4 cells per well. Cultures in the layered configuration were seeded with 9×10^4 3T3-J2 fibroblasts per well 12-18 hours after seeding PHHs to fill in remaining areas, overlaid with 250 μg/mL Matrigel® (Corning® Life Sciences), and then seeded with 6×10^3 endothelia per well the following day. […]
Hepatic morphological, functionality, and health assessments. The morphology of MPCCs was monitored using an EVOS® FL cell imaging system (Life Technologies) with standard 4×, 10×, and 20× phase contrast objectives. CYP3A4 activity in MPCCs was measured using the luminescence-based luciferin-IPA assay from Promega® (Madison, WI) per manufacturer's instructions. CYP2A6 was evaluated by treating the cultures with 50 μM coumarin for 1 hour and measuring the production of the metabolite 7-hydroxycoumarin. Albumin secretions were assessed with an enzyme-linked immunosorbent assay (ELISA) with horseradish peroxidase detection and 3,3′,5,5′-tetramethylbenzidine as the substrate. Urea production was measured via a colorimetric endpoint analysis with diacetylmonoxime, acid, and heat (Stanbio® Labs, Boerne, TX). […]

The conditions of data set [2]: established in previous literature; basis for dosing up to 100xCmax; read-out: Cmax (the maximum plasma concentration); cited from earlier work.

Structures can show the parent of a compound that is named as a salt.

Regarding `Cn1cnc([N+](=O)[O-])c1Sc1ncnc2nc[nH]c12` [azathioprine], the “Toxicity specific to LSECs rather than hepatocytes” value (shortened to “Toxicity specific”) in the data set on LSECs is “toxicity specific to LSECs rather than hepatocytes”. Besides, the “Albumin secretions (drug toxicity), normalized to DMSO-only controls” value in data set [1] is on record as “more responsive to drug toxicity”. Moreover, the Cmax in data set [2] was 3.61 µM.
In the case of `CCN(CC)CCOc1ccc(C(=C(Cl)c2ccccc2)c2ccccc2)cc1` [clomiphene citrate], in the data set with LSECs, the “Toxicity specific” value is listed as “toxicity specific to LSECs rather than hepatocytes”.
With `C[C@H]1C(=O)O[C@@H]2CCN3CC=C(COC(=O)[C@](C)(O)[C@]1(C)O)[C@H]23` [monocrotaline], the “Toxicity specific” value in the data set on LSECs is “toxicity specific to LSECs rather than hepatocytes”. Also, the “Albumin secretions (drug toxicity), normalized to DMSO-only controls” value in data set [1] is “more responsive to drug toxicity”. In addition, the Cmax in data set [2] was 10 µM.
`CN(C)/N=N/c1[nH]cnc1C(N)=O` [dacarbazine]: the “Toxicity specific” value with LSECs is “toxicity specific to LSECs rather than hepatocytes”. The “Albumin secretions (drug toxicity), normalized to DMSO-only controls” value in data set [1] is given as “more responsive to drug toxicity”. Moreover, the Cmax in data set [2] was 43.9 µM.
